From patent US8809280B2, “Therapeutic peptides” (Lytix Biopharma AS, priority 2009, dated 2014)
pEC50: −log10 of the molar value. ≈ marks a conversion by molar mass, not a printed value. Where two headings read alike, the source gives them in different places. Blank lines part the entries; values can stand above or below the molecule they belong to.

Key:
[1] = system: Staphylococcus aureus (ATTC 25923); assay: microbe, parasite or virus in culture; format: cell-based; settings: for MIC: read-out: MIC S. aureus
In short: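 Di-TFA salts tested in duplicate at 0.5–200 μg/ml against exponential-phase bacteria at 2×10^6 cfu/ml grown in 2% peptone water. Growth judged by well turbidity, with no-peptide and gentamicin controls.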

[2] = system: methicillin resistant Staphylococcus aureus (ATCC 33591); assay: microbe, parasite or virus in culture; format: cell-based; settings: for MIC: read-out: MIC MTRSA
In short: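 Di-TFA salts tested in duplicate at 200 down to 0.5 μg/ml against exponentially grown bacteria at 2×10^6 cfu/ml. Growth judged by well turbidity, with no-peptide and gentamicin controls.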

[3] = system: methicillin resistant Staphylococcus epidermidis (ATCC 27626); assay: microbe, parasite or virus in culture; format: cell-based; settings: for MIC: read-out: MIC MRSE
In short: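 Exponentially grown bacteria (2% peptone water) at 2×10^6 cfu/ml exposed in duplicate to di-TFA salts at 0.5–200 μg/ml. Growth or no growth judged by well turbidity; no-peptide and gentamicin controls included.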

[4] = system: Escherichia coli (ATTC 25922); assay: microbe, parasite or virus in culture; format: cell-based; settings: for MIC: read-out: MIC E. coli
In short: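 Broth dilution in 2% Bacto Peptone water, inoculum 2×10^6 cfu/ml of exponential-phase bacteria; compounds (di-TFA salts) tested in duplicate at 200 down to 0.5 μg/ml. Growth judged by well turbidity, with no-peptide negative and gentamicin positive controls.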

human red blood cells = assay: cells; format: cell-based
In short: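 Washed heparinized RBCs, diluted to 10% hematocrit then to 1% v/v final, incubated with compounds in PBS (1–1000 μg/mL) for 1 h at 37 °C with agitation. Hemoglobin release read at 405 nm against PBS (0%) and 0.1% Triton X-100 (100%); value reported is concentration giving 50% hemolysis.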

α-chymotrypsin = α-chymotrypsin (Bos taurus, UniProt P00766, DEL14-15/DEL147-148); assay: Stability against α-chymotrypsin; format: in vitro ADME; settings: over a period of 48 hours
Method: The stability testing against α-chymotrypsin was conducted by dissolving the desired compounds to 1 mg/ml in water. α-Chymotrypsin was dissolved to 0.1 mg/ml in 1 mM HCl containing 2 mM CaCl2. The enzymatic digestion was performed in 100 mM TRIS HCl containing 10 mM CaCl2. Final enzyme concentration was 2 μg/ml, and final peptide concentration was 100 μg/ml. Total volume was 0.5 ml.
15 μl samples were collected at 0, 15, 30, 60, 120 and 240 min in addition to the 24 and 48 hours samples. To the samples it was added an external standard (atenolol hydrochloride) and 100 μl 10% acetic acid to terminate digestion before it was diluted to 1 ml with water.
For every test there were done a negative control without enzyme to ensure that degradation was due to enzyme activity and not other factors. Succinyl-ala-ala-pro-phe-para nitroanhiine was used as positive control. All test were run in triplicates.

[5] = Phospholipid vesicle based barrier model permeability; format: in vitro ADME
Source text: Encouraged by the theoretical calculations, the permeability of the β^2,2-amino acid derivatives was further investigated using a recently established phospholipid vesicle based barrier model (Flaten et al. Eur. J. Pharm. Sci. [2006] 27, 80-90).

[6] = system: Pseudomonas aeruginosa (ATCC 27853); assay: microbe, parasite or virus in culture; format: cell-based; settings: for MIC: Pseudomonas aeruginosa, ATCC27853, Example 4, ATCC 27853, di-trifluoroacetate salts, highest concentration tested 200 μg/ml, read-out: MIC P. aeruginosa; for Therapeutic index P. aeruginosa: EC50 RBC divided by MIC
Method: Each compound was tested in duplicates at 200, 100, 50, 35, 15, 10, 5, 2.5, 1, 0.5 μg/ml. All tested compounds were di-trifluoroacetic acid salts.

[7] = Staphylococcus aureus, ATCC25923, Example 4, ATCC 25923, di-trifluoroacetate salts, highest concentration tested 200 μg/ml
[8] = Staphylococcus aureus, ATCC33591, Example 4, ATCC 33591, di-trifluoroacetate salts, highest concentration tested 200 μg/ml
[9] = Staphylococcus epidermidis, ATCC 27626 / MRSE, Example 4, ATCC 27626, di-trifluoroacetate salts, highest concentration tested 200 μg/ml
[10] = Escherichia coli, ATCC25922, Example 4, ATCC 25922, di-trifluoroacetate salts, highest concentration tested 200 μg/ml
[11] = Erythrocyte, Example 4, hemolytic activity, human red blood cells, highest concentration tested 1000 μg/ml, read-out: EC50 RBC
[12] = phospholipid vesicle based barrier model

- MIC [1, 7]: 15 µM
- MIC [2, 8]: 7.4 µM
- MIC [3, 9]: 15 µM
- MIC [4, 10]: 22 µM
- MIC [6]: > 200 µg/mL
- experimental permeability values, rank ([5]; among 4c, 5c, 6c and 7c): highest permeability
- permeability, model's classification of absorption [5, 12]: moderately absorbed in humans
SMILES: CN1CCN(C(=O)C(CN)(Cc2ccc3ccccc3c2)Cc2ccc3ccccc3c2)CC1 [Entry 5c]
- Therapeutic index S. aureus ([1]; EC50 RBC divided by MIC): 20
- Therapeutic index MRSA ([2]; EC50 RBC divided by MIC): 41
- Therapeutic index MRSE ([3]; EC50 RBC divided by MIC): 20
- Therapeutic index E. coli ([4]; EC50 RBC divided by MIC): 14
- pEC50 (human red blood cells; [11]): 3.52

- MIC [1, 7]: 7.5 µM
- MIC [2, 8]: 7.5 µM
- MIC [3, 9]: 7.5 µM
- MIC [4, 10]: 23 µM
- MIC [6]: 300 µM
- permeability, model's classification of absorption [5, 12]: moderately absorbed in humans
SMILES: CN(C)CCNC(=O)C(CN)(Cc1ccc2ccccc2c1)Cc1ccc2ccccc2c1 [Entry 6c]
- Therapeutic index S. aureus ([1]; EC50 RBC divided by MIC): 16
- Therapeutic index MRSA ([2]; EC50 RBC divided by MIC): 16
- Therapeutic index MRSE ([3]; EC50 RBC divided by MIC): 16
- Therapeutic index E. coli ([4]; EC50 RBC divided by MIC): 5.1
- Therapeutic index P. aeruginosa [6]: 0.4
- pEC50 (human red blood cells; [11]): 3.93

- MIC [1, 7]: 3.9 µM
- MIC [2, 8]: 7.8 µM
- MIC [3, 9]: 3.9 µM
- MIC [4, 10]: 24 µM
- MIC [6]: 55 µM
- permeability, model's classification of absorption [5, 12]: moderately absorbed in humans
SMILES: NCCNC(=O)C(CN)(Cc1ccc2ccccc2c1)Cc1ccc2ccccc2c1 [Entry 7c]
- Therapeutic index S. aureus ([1]; EC50 RBC divided by MIC): 117
- Therapeutic index MRSA ([2]; EC50 RBC divided by MIC): 59
- Therapeutic index MRSE ([3]; EC50 RBC divided by MIC): 117
- Therapeutic index E. coli ([4]; EC50 RBC divided by MIC): 19
- Therapeutic index P. aeruginosa [6]: 8.3
- pEC50 (human red blood cells; [11]): 3.34

Second part, the molecule before the results:

SMILES: CN(C)CCN1CCN(C(=O)C(CN)(Cc2ccc3ccccc3c2)Cc2ccc3ccccc3c2)CC1 [Compound 4c]
- MBC S. aureus ([1]; ATTC 25923): 7.2 µM (≈ 3.66 µg/mL)
- Therapeutic index S. aureus ([1]; ATTC 25923): 20
- MBC MRSA ([2]; ATCC 33591): 7.2 µM (≈ 3.66 µg/mL)
- MIC MRSA ([2]; ATCC 33591): 7.2 µM (≈ 3.66 µg/mL)
- Therapeutic index MRSA ([2]; ATCC 33591): 120
- MIC ([2]; ATCC 33591): 3.4 µM (≈ 1.73 µg/mL)
- MBC MRSE ([3]; ATCC 27626): 7.2 µM (≈ 3.66 µg/mL)
- Therapeutic index MRSE ([3]; ATCC 27626): 29
- MBC E. coli ([4]; ATTC 25922): 289 µM (≈ 147 µg/mL)
- Therapeutic index E. coli ([4]; ATTC 25922): 8.5
- EC50 RBC (human red blood cells; Example 1, 50% hemolysis of human red blood cells, highest concentration tested 1000 μg/ml): — (The notation “—”denotes no detectable activity (MIC or EC50) within the concentration range tested.)
- pEC50 (human red blood cells; red cells of human): 3.39
- proteolytic stability against α-chymotrypsin (α-chymotrypsin): no degradation could be detected
- permeability, model's classification of absorption ([5]; not told): moderately absorbed in humans

SMILES: N=C(N)NCCC[C@H](NC(=O)C(CN)(Cc1ccc2ccccc2c1)Cc1ccc2ccccc2c1)C(N)=O [Compound 4g]
- MBC S. aureus ([1]; ATTC 25923): 6.6 µM (≈ 3.46 µg/mL)
- MIC ([1]; ATTC 25923): 6.6 µM (≈ 3.46 µg/mL)
- MBC MRSA ([2]; ATCC 33591): 5.3 µM (≈ 2.78 µg/mL)
- MIC MRSA ([2]; ATCC 33591): 5.0 µM (≈ 2.62 µg/mL)
- MBC MRSE ([3]; ATCC 27626): 6.6 µM (≈ 3.46 µg/mL)
- MIC ([3]; ATCC 27626): 6.6 µM (≈ 3.46 µg/mL)
- MBC E. coli ([4]; ATTC 25922): 266 µM (≈ 140 µg/mL)
- MIC ([4]; ATTC 25922): 266 µM (≈ 140 µg/mL)
- pEC50 (human red blood cells; red cells of human): 3.33
- proteolytic stability against α-chymotrypsin (α-chymotrypsin): no degradation could be detected

SMILES: Cc1ccc(CC(CN)(Cc2ccc(C)cc2)C(=O)N[C@@H](CCCNC(=N)N)C(N)=O)cc1 [Compound 4h]
- MBC S. aureus ([1]; ATTC 25923): 147 µM (≈ 66.5 µg/mL)
- MIC ([1]; ATTC 25923): 147 µM (≈ 66.5 µg/mL)
- MBC MRSA ([2]; ATCC 33591): 110 µM (≈ 49.8 µg/mL)
- MIC MRSA ([2]; ATCC 33591): 74 µM (≈ 33.5 µg/mL)
- MBC MRSE ([3]; ATCC 27626): 110 µM (≈ 49.8 µg/mL)
- MIC ([3]; ATCC 27626): 74 µM (≈ 33.5 µg/mL)
- MBC E. coli ([4]; ATTC 25922): >294 µM
- proteolytic stability against α-chymotrypsin (α-chymotrypsin): no degradation could be detected

SMILES: N=C(N)NCCC[C@H](NC(=O)C(CN)(Cc1ccc(C(F)(F)F)cc1)Cc1ccc(C(F)(F)F)cc1)C(N)=O [Compound 4i]
- MBC S. aureus ([1]; ATTC 25923): 12.7 µM (≈ 7.12 µg/mL)
- MIC ([1]; ATTC 25923): 12.7 µM (≈ 7.12 µg/mL)
- MBC MRSA ([2]; ATCC 33591): 6.3 µM (≈ 3.53 µg/mL)
- MIC MRSA ([2]; ATCC 33591): 3.2 µM (≈ 1.79 µg/mL)
- MBC MRSE ([3]; ATCC 27626): 12.7 µM (≈ 7.12 µg/mL)
- MIC ([3]; ATCC 27626): 12.7 µM (≈ 7.12 µg/mL)
- MBC E. coli ([4]; ATTC 25922): >254 µM
- MIC ([4]; ATTC 25922): 254 µM (≈ 142 µg/mL)
- proteolytic stability against α-chymotrypsin (α-chymotrypsin): no degradation could be detected

SMILES: CC(C)(C)c1ccc(CC(CN)(Cc2ccc(C(C)(C)C)cc2)C(=O)N[C@@H](CCCNC(=N)N)C(N)=O)cc1 [Compound 4k]
- MBC S. aureus ([1]; ATTC 25923): 6.5 µM (≈ 3.49 µg/mL)
- MIC ([1]; ATTC 25923): 6.5 µM (≈ 3.49 µg/mL)
- MBC MRSA ([2]; ATCC 33591): 6.5 µM (≈ 3.49 µg/mL)
- MIC MRSA ([2]; ATCC 33591): 3.3 µM (≈ 1.77 µg/mL)
- MBC MRSE ([3]; ATCC 27626): 5.2 µM (≈ 2.79 µg/mL)
- MIC ([3]; ATCC 27626): 5.0 µM (≈ 2.68 µg/mL)
- MBC E. coli ([4]; ATTC 25922): 46 µM (≈ 24.7 µg/mL)
- MIC ([4]; ATTC 25922): 46 µM (≈ 24.7 µg/mL)
- proteolytic stability against α-chymotrypsin (α-chymotrypsin): no degradation could be detected

SMILES: COc1cc(CC(CN)(Cc2cc(OC)cc(OC)c2)C(=O)N[C@@H](CCCNC(=N)N)C(N)=O)cc(OC)c1 [Compound 4m]
- MBC S. aureus ([1]; ATTC 25923): >259 µM
- MIC ([1]; ATTC 25923): 259 µM (≈ 141 µg/mL)
- MBC MRSA ([2]; ATCC 33591): 259 µM (≈ 141 µg/mL)
- MIC MRSA ([2]; ATCC 33591): 259 µM (≈ 141 µg/mL)
- MBC MRSE ([3]; ATCC 27626): 129 µM (≈ 70.3 µg/mL)
- MIC ([3]; ATCC 27626): 129 µM (≈ 70.3 µg/mL)
- MBC E. coli ([4]; ATTC 25922): >259 µM
- proteolytic stability against α-chymotrypsin (α-chymotrypsin): no degradation could be detected
